Values quoted from earlier work as cited in patent US20230330126A1, “MODIFIED ADENOSINE NUCLEOSIDE FOR USE IN THE TREATMENT OF VIRAL INFECTIONS” (priority 2020, published 2023).

Key:
[1] = animal and human studies

half-life | Compound | efficacy compared with theophylline [1] | tolerability profile compared with theophylline [1]
– | Cn1c(=O)c2c(ncn2CC2OCCO2)n(C)c1=O [doxofylline, Doxofylline] | comparable efficacy to that of theophylline | better tolerability profile, with significantly fewer side effects
15 h | O=c1[nH]cnc2c1ncn2[C@@H]1O[C@H](CO)[C@@H](O)[C@H]1O [inosine, Inosine] | – | –
